From US20120316105A1, “Polymyxin Derivates Useful As Antibacterial Agents” (priority 2011, published 2012) come the findings set out here.

Where two headings read alike, the source gives them in different places. Bridge positions count the residues as written; N and C are the ends. Square brackets hold non-standard residues; d marks the D form. Peptide text beside a SMILES is read from it. * marks the point of attachment. Isonicotinoyl(2-Ph) = O=C(c1ccnc(-c2ccccc2)c1)*; Dab = NCC[C@H](N)C(=O)O; Dap = NC[C@H](N)C(=O)O

The subject of data set [1] is PA-1646, polymyxin-resistant clinical isolate of Pseudomonas aeruginosa. Type of data set: cell-based. The gist of the method: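 Broth dilution MIC and bactericidal (MBC) testing per CLSI methods (M7-A8, M100-S20, M26-A) against polymyxin-resistant clinical P. aeruginosa isolate PA-1646. Compounds tested as trifluoroacetate salts, one as sulfate salt; values in mg/L.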

The test system of data set [2] is AB-1649, polymyxin-resistant clinical isolate of Acinetobacter baumannii. It is filed as cell-based. A digest of the protocol: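 Broth dilution MIC per CLSI against the polymyxin-resistant A. baumannii isolate, 2-fold dilutions, overnight incubation, visual read of lowest concentration inhibiting growth. Run in duplicate, lower value reported when within 2-fold; MBC per CLSI M26-A guideline.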

The subject of data set [3] is AB-3167, clinical isolate of Acinetobacter baumannii. Type of data set: cell-based. The gist of the method:
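Broth dilution MIC per CLSI (M7-A8, M100-S20, M26-A for bactericidal), 2-fold dilution series, overnight incubation, visual read of lowest concentration inhibiting growth versus drug-free control. Duplicates run; lower value reported if within 2-fold, otherwise repeated. Compounds tested as trifluoroacetate salts; QC strains and reference compounds required in range.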

In data set [4] the test system is PA-1646, polymyxin-resistant clinical isolate of Pseudomonas aeruginosa. Type of data set: cell-based. A digest of the protocol:
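Broth dilution MIC per CLSI with 2-fold concentration steps, read visually after overnight incubation as lowest concentration inhibiting growth; duplicates within 2-fold, lower value reported, with QC strains and reference compounds. Compounds tested as trifluoroacetate salts, polymyxin B as sulfate.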
This is another data set of the same source.

Data set [5] has as its system Pseudomonas aeruginosa strain PA01. It is filed as cell-based. A digest of the protocol:
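CLSI broth dilution against P. aeruginosa PA01 with two-fold concentration steps and overnight incubation; MIC is lowest concentration visibly inhibiting growth versus drug-free control, in mg/L. Compounds tested as trifluoroacetate salts, in duplicate, lower value reported if within 2-fold; control organisms and reference compounds included.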

The test system of data set [6] is AB-1649, polymyxin-resistant clinical isolate of Acinetobacter baumannii. Type of data set: cell-based. A digest of the protocol:
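MIC and MBC were measured by CLSI broth dilution methods (M7-A8, M100-S20, M26-A) against a polymyxin-resistant clinical isolate and reported in mg/L. Compounds were tested as trifluoroacetate salts, with one exception tested as the sulfate.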
This is another data set of the same source.

In data set [7] the test system is EC-1, mouse virulent strain of Escherichia coli. Type of data set: cell-based. Conditions: E. coli EC-1; overnight incubation, lower of duplicate values; trifluoroacetate salt (Example 1 and PMB sulfate). A digest of the protocol: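 Compounds were tested mostly as trifluoroacetate salts. Duplicate CLSI broth-dilution MICs were read visually after overnight incubation over 2-fold dilutions, with the lower of duplicates within 2-fold taken. QC organisms and reference drugs were included in each run.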

A short description of data set [8]: Cytotoxicity assay (LDH release), hRPTEC. It is filed as cell-based, human. The settings on record: human. The gist of the method:
(§1)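 hRPTEC grown 72 h in REGM, then exposed to compounds at 100, 67, 44, 30, 20 and 13 micromolar for 24 h at 37° C, 5% CO2. LDH released into supernatant measured; TC50 (micromolar) derived. Compounds tested as trifluoroacetate salts unless otherwise noted.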

Data set [9] has as its system Human Renal Proximal Tubule Epithelial cells (hRPTEC). The experiment in a line: Cytotoxicity assay (LDH release), hRPTEC. Type of data set: cell-based. A digest of the protocol:
as §1

The test system of data set [10] is KP-5016, ESBL+ clinical isolate of Klebsiella pneumoniae (SHV-5). Briefly: Minimum inhibitory concentration (MIC, CLSI), KP-5016. Type of data set: cell-based. Conditions: K. pneumoniae KP-5016; overnight incubation, lower of duplicate values; trifluoroacetate salt (Example 1 and PMB sulfate). How it is done: (§2) Minimum bactericidal concentration (MBC, mg/L), minimum inhibitory concentration (MIC, mg/L), and human renal proximal tubule epithelial cell line cytotoxicity concentration 50% (hRPTEC, TC50, micromolar) for compounds of Formula I are listed in Table 2. The compounds of Formula I were tested as the corresponding trifluoroacetate salt except for Example 1 which was tested as the sulfate salt. For Table 2 below: PMB=polymyxin B as the sulfate salt (Bedford Laboratories, pharmaceutical grade); PMB1=polymyxin B1 as the trifluoroacetate salt; Nona=polymyxin B nonapeptide as the trifluoroacetate salt. PMB1 and Nona were prepared using the solid phase methodology described in the experimental section herein.
(§3) The in vitro antibacterial activity of compounds of Formula I was evaluated by MIC testing according to Clinical and Laboratory Standards Institute (CLSI). See: Clinical and Laboratory Standards Institute. Methods for Dilution Antimicrobial Susceptibility Tests for Bacteria that Grow Aerobically; Approved Standard-Eighth Edition. CLSI document M7-A8 [ISBN 1-56238-689-1]. Clinical and Laboratory Standards Institute, 940 West Valley Road, Suite 1400, Wayne, Pa. 19087-1898 USA, 2006; also Clinical and Laboratory Standards Institute. Performance Standards for Antimicrobial Susceptibility Testing; Twentieth Informational Supplement. CLSI document M100-S20 [ISBN 1-56238-716-2]. Clinical and Laboratory Standards Institute. Methods for Determining Bactericidal Activity of Antimicrobial Agents; Approved Guideline. CLSI document M26-A (ISBN 1-56238-384-1). CLSI, 940 West Valley Road, Suite 1400, Wayne, Pa. 19087-1898 USA, 1999.
(§4) The MIC determination is a standard laboratory method for evaluating the antibacterial activity of a compound. The MIC represents the lowest drug concentration that inhibits visible growth of bacteria following overnight incubation. […] Typically, the drug concentration range is broken down into 2-fold increments (e.g. 0.06 mg/L, 0.12 mg/L, 0.25 mg/L, 0.50 mg/L, 1.0 mg/L, etc.) and the various drug concentrations are all individually incubated overnight with approximately the same number of bacteria. The MIC is then determined by visually inspecting the drug effect at each concentration, and identifying the lowest drug concentration that has inhibited bacterial growth as compared to the drug free control. Typically, bacteria continue to grow at drug concentrations lower than the MIC and don't grow at concentrations at and above the MIC.
(§5) The MIC values described in Table 2 below were derived from assays wherein each test compound was evaluated in duplicate. In cases where the duplicate values varied by 0-2-fold, the lower of the two values was reported below. Generally speaking, if the duplicate values varied by more than 2-fold, the assay was considered non-valid and was repeated until the variation between duplicate runs was ≦2-fold. In line with the CLSI guidelines referred to above, both control organisms and reference compounds were utilized in each MIC assay to provide proper quality control. MIC values generated with these control organisms and reference compounds were required to fall within a defined range for the assay to be considered valid and be included herein. Those skilled in the art will recognize that MIC values can and do vary from experiment to experiment. Generally speaking, it should be recognized that MIC values often vary +/−2-fold from experiment to experiment. While a single MIC is reported for each compound and each microorganism, the reader should not conclude that each compound was only tested once. Several of the compounds were subjected to multiple tests. The data reported in Table 2 is reflective of the compounds relative activity and different MICs may have been generated on these occasions in line with the guidelines described above.
The following bacterial strains were used in these MIC determinations: […]

In data set [11] the test system is KP-3700, ESBL+ clinical isolate of Klebsiella pneumoniae. The experiment in a line: Minimum inhibitory concentration (MIC, CLSI), KP-3700. The settings on record: K. pneumoniae KP-3700; overnight incubation, lower of duplicate values; trifluoroacetate salt (Example 1 and PMB sulfate). It is filed as cell-based. How it is done: as §2, §3, §4, §5
The following bacterial strains were used in these MIC determinations:
KP-3700 is an ESBL+clinical isolate of Klebsiella pneumoniae obtained in 2006; and […]

[12] abbreviates: PA-1646, polymyxin-resistant clinical isolate of.
The mark [13] stands for this setting: AB-1649, polymyxin-resistant clinical isolate of.

With `CC(C)C[C@@H]1NC(=O)[C@@H](Cc2ccccc2)NC(=O)[C@H](CCN)NC(=O)[C@@H](NC(=O)[C@H](CN)NC(=O)[C@@H](NC(=O)[C@H](CCN)NC(=O)c2ccnc(-c3ccccc3)c2)[C@@H](C)O)CCNC(=O)[C@H]([C@@H](C)O)NC(=O)[C@H](CCN)NC(=O)[C@H](CCN)NC1=O` [Example 1] ({Isonicotinoyl(2-Ph)}-[Dab]T[Dap][Dab][Dab][dF]L[Dab][Dab]T; lactam 4-C), the “PA-1646 MBC” value in data set [1] (setting [12]) was determined as 4 µg/mL. For the same molecule, the “AB-1649 MIC” value in data set [2] (setting [13]) was 1 µg/mL. Further, the “AB-3167 MIC” value in data set [3] (AB-3167, clinical isolate of) worked out at 0.25 µg/mL. Further, the “PA-1646 MIC” value in data set [4] (setting [12]) came to 2 µg/mL. For the same molecule, the “PA01 MIC” value in [5] (strain) is 0.25 µg/mL. The “AB-1649 MBC” value in [6] (setting [13]) came out at 1 µg/mL. In data set [7], the “EC-1 MIC” value amounted to 0.125 µg/mL. In [8], this molecule showed a CC50 at 24 h of 95 µM. For the same molecule, the “reduced human renal cytotoxicity compared with PMB” value in [9] was 4-5 fold.

On to polymyxin B [PMB, reference compound], for which the “PA-1646 MBC” value in data set [1] (P. aeruginosa PA-1646, tested as trifluoroacetate salt (Example 1 and PMB as sulfate salt)) amounted to 32 µg/mL. Also, the “AB-1649 MIC” value in data set [2] (A. baumannii AB-1649, overnight incubation, lower of duplicate values, trifluoroacetate salt (Example 1 and PMB sulfate)) stood at 8 µg/mL. In [3] (A. baumannii AB-3167, overnight incubation, lower of duplicate values, trifluoroacetate salt (Example 1 and PMB sulfate)), the “AB-3167 MIC” value was determined as 0.25 µg/mL. Moreover, the “PA-1646 MIC” value in data set [4] (P. aeruginosa PA-1646, overnight incubation, lower of duplicate values, trifluoroacetate salt (Example 1 and PMB sulfate)) was found to be 8 µg/mL. Besides, the “PA01 MIC” value in data set [5] (P. aeruginosa PA01, overnight incubation, lower of duplicate values, trifluoroacetate salt (Example 1 and PMB sulfate)) turned out to be 0.5 µg/mL. In addition, in [6] (A. baumannii AB-1649, tested as trifluoroacetate salt (Example 1 and PMB as sulfate salt)), the “AB-1649 MBC” value turned out to be 8 µg/mL. The “KP-5016 MIC” value in data set [10] is 32 µg/mL. The “KP-3700 MIC” value in [11] was 0.25 µg/mL. The “EC-1 MIC” value in data set [7] worked out at 0.125 µg/mL. In addition, the CC50 in [9] (hRPTEC, 24 hours treatment, LDH release, Toxic Concentration 50%, read-out: hRPTEC TC50) was determined as 20 µM.
